Assay results taken from patent US7781436B2 (Hoffmann-La Roche Inc., priority 2005, dated 2010).

Biological target: T1, human V1a receptor (Homo sapiens, UniProt P37288)
T1 construct: expressed in transfected cells; host or cells: HEK293 cells, transiently transfected; membranes prepared
Assay: human V1a receptor binding (3H-Vasopressin SPA, membranes of transfected HEK293 cells)
Details: not given
Description: The human V1a receptor was cloned by RT-PCR from total human liver RNA. The coding sequence was subcloned in an expression vector after sequencing to confirm the identity of the amplified sequence. […] Cell membranes were prepared from HEK293 cells transiently transfected with the expression vector and grown in 20 liter fermenters with the following protocol.
50 g of cells are resuspended in 30 ml freshly prepared ice cold Lysis buffer (50 mM HEPES, 1 mM EDTA, 10 mM MgCl2 adjusted to pH=7.4+ complete cocktail of protease inhibitor (Roche Diagnostics)). Homogenized with Polytron for 1 min and sonicated on ice for 2×2 minutes at 80% intensity (Vibracell sonicator). The preparation is centrifuged 20 min at 500 g at 4° C., the pellet is discarded and the supernatant centrifuged 1 hour at 43,000 g at 4° C. (19'000 rpm). The pellet is resuspended in 12.5 ml Lysis buffer+12.5 ml Sucrose 20% and homogenized using a Polytron for 1-2 min. The protein concentration is determined by the Bradford method, and aliquots are stored at −80° C. until use. For binding studies 60 mg Yttrium silicate SPA beads (Amersham) are mixed with an aliquot of membrane in binding buffer (50 mM Tris, 120 mM NaCl, 5 mM KCl, 2 mM CaCl2, 10 mM MgCl2) for 15 minutes with mixing. 50 ul of bead/membrane mixture is then added to each well of a 96 well plate, followed by 50 ul of 4 nM 3H-Vasopressin (American Radiolabeled Chemicals). For total binding measurement 100 ul of binding buffer are added to the respective wells, for non-specific binding 100 ul of […] cold vasopressin and for compound testing 100 ul of a serial dilution of each compound in 2% DMSO. The plate is incubated 1 h at room temperature, centrifuged 1 min at 1000 g and counted on a Packard Top-Count. Non-specific binding counts are subtracted from each well, and data is normalized to the maximum specific binding set at 100%. To calculate an IC 50 the curve is fitted using a non-linear regression model (XLfit) and the Ki is calculated using the Cheng-Prussoff equation.

T1 sequence (P37288 whole entry): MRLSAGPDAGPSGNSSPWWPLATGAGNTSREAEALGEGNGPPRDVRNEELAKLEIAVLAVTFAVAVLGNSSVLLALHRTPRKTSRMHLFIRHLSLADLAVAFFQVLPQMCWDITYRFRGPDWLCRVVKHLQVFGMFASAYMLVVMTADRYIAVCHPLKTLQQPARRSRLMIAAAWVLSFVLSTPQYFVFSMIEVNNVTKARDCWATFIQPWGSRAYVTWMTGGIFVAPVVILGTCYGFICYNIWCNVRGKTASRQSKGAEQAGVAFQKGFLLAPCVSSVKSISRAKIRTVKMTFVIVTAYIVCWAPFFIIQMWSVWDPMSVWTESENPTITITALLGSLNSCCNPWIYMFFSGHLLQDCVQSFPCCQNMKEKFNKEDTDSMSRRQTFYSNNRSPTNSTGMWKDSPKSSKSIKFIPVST

| Compound | Ki [nM] |
| --- | --- |
| COc1cccc(OC)c1C1CCN(C(=O)c2cn(Cc3ccccn3)c3cc(Cl)ccc23)CC1 [Example 47, (6-Chloro-1-pyridin-2-ylmethyl-1H-indol-3-yl)-[4-(2,6-dimethoxy-phenyl)-piperidin-1-yl]-methanone] | 4 |
| CN1CCC[C@@H]1Cn1cc(C(=O)N2CCN(c3ccccc3F)CC2)c2ccc(Cl)cc21 [Example 215, [6-Chloro-1-((R)-1-methyl-pyrrolidin-2-ylmethyl)-1H-indol-3-yl]-[4-(2-fluoro-phenyl)-piperazin-1-yl]-methanone] | 6 |
| CNC(=O)Cn1cc(C(=O)N2CCN(c3ccccc3F)CC2)c2ccc(Cl)cc21 [Example 176, 2-{6-Chloro-3-[4-(2-fluoro-phenyl)-piperazine-1-carbonyl]-indol-1-yl}-N-methyl-acetamide] | 8 |
| COc1ccccc1C1=CCN(C(=O)c2c(C)n(Cc3ccccc3)c3ccccc23)CC1 [Example 3] | 14 |
| CN(C)CCn1cc(C(=O)N2CCC(c3cccc4c3OCC4)CC2)c2ccc(Cl)cc21 [Example 87, [6-Chloro-1-(2-dimethylamino-ethyl)-1H-indol-3-yl]-[4-(2,3-dihydro-benzofuran-7-yl)-piperidin-1-yl]-methanone] | 4 |
| Cc1c(C(=O)N2CCC(c3ccccc3)CC2)c2ccccc2n1Cc1ccccc1 [Example 24] | 10 |
| CN1CCN(C(=O)Cn2cc(C(=O)N3CCC(c4cccc5c4OCC5)CC3)c3ccc(Cl)cc32)CC1 [Example 71, 2-{6-Chloro-3-[4-(2,3-dihydro-benzofuran-7-yl)-piperidine-1-carbonyl]-indol-1-yl}-1-(4-methyl-piperazin-1-yl)-ethanone] | 5 |
| COc1ccccc1C1CCN(C(=O)c2cn(Cc3cc(F)cc(F)c3)c3cc(Cl)ccc23)CC1 [Example 56, [6-Chloro-1-(3,5-difluoro-benzyl)-1H-indol-3-yl]-[4-(2-methoxy-phenyl)-piperidin-1-yl]-methanone] | 2 |
| O=C(c1cn(C[C@@H]2CCCN2)c2cc(Cl)ccc12)N1CCN(c2ccccc2F)CC1 [Example 200, (6-Chloro-1-(S)-1-pyrrolidin-2-ylmethyl-1H-indol-3-yl)-[4-(2-fluoro-phenyl)-piperazin-1-yl]-methanone] | 21 |

Same assay, conditions: displacement of 4 nM 3H-Vasopressin, HEK293 cell membranes, Ki by Cheng-Prussoff from IC50; read-out: Ki

| Compound | Ki [nM] |
| --- | --- |
| COc1ccccc1C1CCN(C(=O)c2cn(CC(=O)OC(C)(C)C)c3cc(Cl)ccc23)CC1 [Example 59, {6-Chloro-3-[4-(2-methoxy-phenyl)-piperidine-1-carbonyl]-indol-1-yl}-acetic acid tert-butyl ester] | 2 |
| CNCCn1cc(C(=O)N2CCC(c3cccc4c3OCC4)CC2)c2ccc(Cl)cc21 [Example 107, [6-Chloro-1-(2-methylamino-ethyl)-1H-indol-3-yl]-[4-(2,3-dihydro-benzofuran-7-yl)-piperidin-1-yl]-methanone] | 12 |
| COc1cccc(OC)c1C1CCN(C(=O)c2cn(CC(=O)OC(C)(C)C)c3cc(Cl)ccc23)CC1 [Example 49, {6-Chloro-3-[4-(2,6-dimethoxy-phenyl)-piperidine-1-carbonyl]-indol-1-yl}-acetic acid tert-butyl ester] | 3 |
| CN(C)CCn1cc(C(=O)N2CCC(c3ccccc3F)CC2)c2ccc(Cl)cc21 [Example 115, [6-Chloro-1-(2-dimethylamino-ethyl)-1H-indol-3-yl]-[4-(2-fluoro-phenyl)-piperidin-1-yl]-methanone] | 11 |
| COc1cccc(OC)c1C1CCN(C(=O)c2cn(Cc3ccnc(C)c3)c3cc(Cl)ccc23)CC1 [Example 63, [6-Chloro-1-(2-methyl-pyridin-4-ylmethyl)-1H-indol-3-yl]-[4-(2,6-dimethoxy-phenyl)-piperidin-1-yl]-methanone] | 2 |
| COc1cccc(OC)c1C1CCN(C(=O)c2cn(Cc3cccnc3)c3cc(Cl)ccc23)CC1 [Example 46, (6-Chloro-1-pyridin-3-ylmethyl-1H-indol-3-yl)-[4-(2,6-dimethoxy-phenyl)-piperidin-1-yl]-methanone] | 7 |

Second part, the compound after the results:

| Ki [nM] | Compound |
| --- | --- |
| 7 | CN1CCN(C(=O)Cn2cc(C(=O)N3CCC(c4ccccc4OC(F)(F)F)CC3)c3ccc(Cl)cc32)CC1 [Example 88, 2-{6-Chloro-3-[4-(2-trifluoromethoxy-phenyl)-piperidine-1-carbonyl]-indol-1-yl}-1-(4-methyl-piperazin-1-yl)-ethanone] |
| 12 | CNC(=O)Cn1cc(C(=O)N2CCN(c3ncccc3I)CC2)c2ccc(Cl)cc21 [Example 225, 2-{6-Chloro-3-[4-(3-iodo-pyridin-2-yl)-piperazine-1-carbonyl]-indol-1-yl}-N-methyl-acetamide] |
| 5 | CC(C)Oc1ccccc1C1CCN(C(=O)c2cn(CC(=O)N3CCN(C)CC3)c3cc(Cl)ccc23)CC1 [Example 67, 2-{6-Chloro-3-[4-(2-isopropoxy-phenyl)-piperidine-1-carbonyl]-indol-1-yl}-1-(4-methyl-piperazin-1-yl)-ethanone] |
| 2 | COc1cccc(OC)c1C1CCN(C(=O)c2cn(CC(=O)N3CCN(C)CC3)c3cc(Cl)ccc23)CC1 [Example 55, 2-{6-Chloro-3-[4-(2,6-dimethoxy-phenyl)-piperidine-1-carbonyl]-indol-1-yl}-1-(4-methyl-piperazin-1-yl)-ethanone] |
| 6 | CN1CCN(C(=O)Cn2cc(C(=O)N3CCC(c4ccccc4F)CC3)c3ccc(Cl)cc32)CC1 [Example 117, 2-{6-Chloro-3-[4-(2-fluoro-phenyl)-piperidine-1-carbonyl]-indol-1-yl}-1-(4-methyl-piperazin-1-yl)-ethanone] |
| 14 | CCOc1ccccc1N1CCN(C(=O)c2cn(CC(=O)N(C)C)c3cc(Cl)ccc23)CC1 [Example 152, 2-{6-Chloro-3-[4-(2-ethoxy-phenyl)-piperazine-1-carbonyl]-indol-1-yl}-N,N-dimethyl-acetamide] |
| 22 | COc1ccccc1N1CCN(C(=O)c2cn(CCN(C)C)c3cc(Cl)ccc23)CC1 [Example 163, [6-Chloro-1-(2-dimethylamino-ethyl)-1H-indol-3-yl]-[4-(2-methoxy-phenyl)-piperazin-1-yl]-methanone] |
| 32 | NC(=O)Cn1cc(C(=O)N2CCN(c3ccccc3F)CC2)c2ccc(Cl)cc21 [Example 175, 2-{6-Chloro-3-[4-(2-fluoro-phenyl)-piperazine-1-carbonyl]-indol-1-yl}-acetamide] |
| 8 | CNC(=O)Cn1cc(C(=O)N2CCC(c3ccccc3OC(F)(F)F)CC2)c2ccc(Cl)cc21 [Example 90, 2-{6-Chloro-3-[4-(2-trifluoromethoxy-phenyl)-piperidine-1-carbonyl]-indol-1-yl}-N-methyl-acetamide] |
| 5 | CNC(=O)Cn1cc(C(=O)N2CCC(c3ccccc3OC)CC2)c2ccc(Cl)cc21 [Example 106, 2-{6-Chloro-3-[4-(2-methoxy-phenyl)-piperidine-1-carbonyl]-indol-1-yl}-N-methyl-acetamide] |
| 11 | COc1cccc(OC)c1C1CCN(C(=O)c2cn(CC(=O)NCCN)c3cc(Cl)ccc23)CC1 [Example 84, N-(2-Amino-ethyl)-2-{6-chloro-3-[4-(2,6-dimethoxy-phenyl)-piperidine-1-carbonyl]-indol-1-yl}-acetamide] |
| 10 | CN1CCN(C(=O)Cn2cc(C(=O)N3CCN(c4ccccc4F)CC3)c3ccc(Cl)cc32)CC1 [Example 172, 2-{6-Chloro-3-[4-(2-fluoro-phenyl)-piperazine-1-carbonyl]-indol-1-yl}-1-(4-methyl-piperazin-1-yl)-ethanone] |
